# Results published in ChEMBL document CHEMBL1201861, “Genomics of Drug Sensitity in Cancer screening data, Wellcome Trust Sanger Institute”.
# Assays:
# Assay in all cases: cells
# Ca9-22 = type: functional, cell-based, Homo sapiens; conditions: Homo sapiens, Ca9-22;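 also: growth inhibition of Ca9-22 cells, read out with a cell viability assay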
# Description: SANGER: Inhibition of human Ca9-22 cell growth in a cell viability assay.
# D-502MG = type: functional, cell-based, Homo sapiens; conditions: Homo sapiens, D-502MG
# Description: SANGER: Inhibition of human D-502MG cell growth in a cell viability assay.
# GI-ME-N = type: functional, cell-based, Homo sapiens; conditions: Homo sapiens, GI-ME-N;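 also: growth inhibition of human GI-ME-N cells, read out with a cell viability assay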
# Description: SANGER: Inhibition of human GI-ME-N cell growth in a cell viability assay.
# HCC1806 = type: functional, cell-based, Homo sapiens; conditions: Homo sapiens, HCC1806;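 also: growth inhibition of the cancer cell line, determined with a cell viability assay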
# Description: SANGER: Inhibition of human HCC1806 cell growth in a cell viability assay.
# HCC1954 = type: functional, cell-based, Homo sapiens; conditions: Homo sapiens, HCC1954;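 also: growth inhibition of human HCC1954 cells, read out with a cell viability assay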
# Description: SANGER: Inhibition of human HCC1954 cell growth in a cell viability assay.
# HT-1080 = type: functional, cell-based, Homo sapiens; conditions: Homo sapiens, HT-1080
# Description: SANGER: Inhibition of human HT-1080 cell growth in a cell viability assay.
# JVM-3 = type: functional, cell-based; conditions: Homo sapiens;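 also: growth inhibition of human JVM-3 cells, read out with a cell viability assay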
# Description: SANGER: Inhibition of human JVM-3 cell growth in a cell viability assay.
# KALS-1 = type: functional, cell-based, Homo sapiens; conditions: Homo sapiens, KALS-1;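 also: growth inhibition of KALS-1 cells, determined with a cell viability assay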
# Description: SANGER: Inhibition of human KALS-1 cell growth in a cell viability assay.
# KP-N-YN = type: functional, cell-based; conditions: Homo sapiens;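 also: growth inhibition of KP-N-YN cells, read out with a cell viability assay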
# Description: SANGER: Inhibition of human KP-N-YN cell growth in a cell viability assay.
# KS-1 = type: functional, cell-based, Homo sapiens; conditions: Homo sapiens, KS-1;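 also: growth inhibition of KS-1 cells, read out with a cell viability assay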
# Description: SANGER: Inhibition of human KS-1 cell growth in a cell viability assay.
# KU-19-19 = type: functional, cell-based, Homo sapiens; conditions: Homo sapiens, KU-19-19
# Description: SANGER: Inhibition of human KU-19-19 cell growth in a cell viability assay.
# KYSE-270 = type: functional, cell-based, Homo sapiens; conditions: Homo sapiens, KYSE-270;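 also: cell growth inhibition measured with a viability assay in the human KYSE-270 line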
# Description: SANGER: Inhibition of human KYSE-270 cell growth in a cell viability assay.
# L-363 = type: functional, cell-based; conditions: Homo sapiens
# Description: SANGER: Inhibition of human L-363 cell growth in a cell viability assay.
# MC-IXC = type: functional, cell-based, Homo sapiens; conditions: Homo sapiens, MC-IXC;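 also: growth inhibition of MC-IXC cells, read out with a cell viability assay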
# Description: SANGER: Inhibition of human MC-IXC cell growth in a cell viability assay.
# MEL-HO = type: functional, cell-based, Homo sapiens; conditions: Homo sapiens, MEL-HO
# Description: SANGER: Inhibition of human MEL-HO cell growth in a cell viability assay.
# MHH-NB-11 = type: functional, cell-based, Homo sapiens; conditions: Homo sapiens, MHH-NB-11;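 also: growth inhibition of human MHH-NB-11 cells, read out by a cell viability assay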
# Description: SANGER: Inhibition of human MHH-NB-11 cell growth in a cell viability assay.
# MIA PaCa-2 = type: functional, cell-based, Homo sapiens; conditions: Homo sapiens, MIA PaCa-2;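 also: growth inhibition of MIA PaCa-2 cells, read out with a cell viability assay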
# Description: SANGER: Inhibition of human MIA-PaCa-2 cell growth in a cell viability assay.
# MOLT-16 = type: functional, cell-based; conditions: Homo sapiens;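 also: growth inhibition of human MOLT-16 cells, read out with a cell viability assay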
# Description: SANGER: Inhibition of human MOLT-16 cell growth in a cell viability assay.
# MZ7-mel = type: functional, cell-based, Homo sapiens; conditions: Homo sapiens, MZ7-mel;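 also: growth inhibition of human MZ7-mel cells, measured by a cell viability assay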
# Description: SANGER: Inhibition of human MZ7-mel cell growth in a cell viability assay.
# NCI-H1437 = type: functional, cell-based, Homo sapiens; conditions: Homo sapiens, NCI-H1437;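 also: growth inhibition of human NCI-H1437 cells, read out by a cell viability assay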
# Description: SANGER: Inhibition of human NCI-H1437 cell growth in a cell viability assay.
# NCI-H1623 = type: functional, cell-based, Homo sapiens; conditions: Homo sapiens, NCI-H1623;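 also: cell viability assay used as the read-out for growth inhibition of NCI-H1623 cells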
# Description: SANGER: Inhibition of human NCI-H1623 cell growth in a cell viability assay.
# NCI-H1770 = type: functional, cell-based; conditions: Homo sapiens;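 also: growth inhibition of NCI-H1770 cells determined with a viability readout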
# Description: SANGER: Inhibition of human NCI-H1770 cell growth in a cell viability assay.
# NCI-H1793 = type: functional, cell-based, Homo sapiens; conditions: Homo sapiens, NCI-H1793;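 also: cell growth inhibition, read out by a cell viability assay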
# Description: SANGER: Inhibition of human NCI-H1793 cell growth in a cell viability assay.
# NCI-H292 = type: functional, cell-based, Homo sapiens; conditions: Homo sapiens, NCI-H292;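 also: growth inhibition of NCI-H292 cells, read out with a cell viability assay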
# Description: SANGER: Inhibition of human NCI-H292 cell growth in a cell viability assay.
# NCI-H358 = type: functional, cell-based, Homo sapiens; conditions: Homo sapiens, NCI-H358;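 also: growth inhibition of NCI-H358 human cells, read out with a cell viability assay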
# Description: SANGER: Inhibition of human NCI-H358 cell growth in a cell viability assay.
# NCI-H69 = type: functional, cell-based; conditions: Homo sapiens;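 also: growth inhibition of the cell line, read out with a cell viability assay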
# Description: SANGER: Inhibition of human NCI-H69 cell growth in a cell viability assay.
# NCI-N87 = type: functional, cell-based, Homo sapiens; conditions: Homo sapiens, NCI-N87;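 also: growth inhibition of human NCI-N87 cells, read out with a cell viability assay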
# Description: SANGER: Inhibition of human NCI-N87 cell growth in a cell viability assay.
# NY = type: functional, cell-based, Homo sapiens; conditions: Homo sapiens, NY
# Description: SANGER: Inhibition of human NY cell growth in a cell viability assay.
# OE33 = type: functional, cell-based, Homo sapiens; conditions: Homo sapiens, OE33;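 also: growth inhibition of human OE33 cells, measured by a cell viability assay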
# Description: SANGER: Inhibition of human OE33 cell growth in a cell viability assay.
# PANC-03-27 = type: functional, cell-based, Homo sapiens; conditions: Homo sapiens, PANC-03-27
# Description: SANGER: Inhibition of human PANC-03-27 cell growth in a cell viability assay.
# RVH-421 = type: functional, cell-based, Homo sapiens; conditions: Homo sapiens, RVH-421
# Description: SANGER: Inhibition of human RVH-421 cell growth in a cell viability assay.
# SBC-1 = type: functional, cell-based; conditions: Homo sapiens;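 also: cell viability assay measuring growth inhibition of the SBC-1 cell line, IC50 being the concentration that halves growth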
# Description: SANGER: Inhibition of human SBC-1 cell growth in a cell viability assay.
# SK-HEP1 = type: functional, cell-based, Homo sapiens, SK-HEP-1; conditions: Homo sapiens, SK-HEP1;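 also: cell viability readout used to quantify reduction in proliferation of human SK-HEP-1 cells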
# Description: SANGER: Inhibition of human SK-HEP-1 cell growth in a cell viability assay.
# SK-MEL3 = type: functional, cell-based, Homo sapiens, SK-MEL-3; conditions: Homo sapiens, SK-MEL3;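 also: growth inhibition of human SK-MEL-3 cells, read out with a cell viability assay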
# Description: SANGER: Inhibition of human SK-MEL-3 cell growth in a cell viability assay.
# SN12C = type: functional, cell-based, Homo sapiens; conditions: Homo sapiens, SN12C;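 also: growth inhibition of human SN12C cells, measured by a cell viability assay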
# Description: SANGER: Inhibition of human SN12C cell growth in a cell viability assay.
# SNU-449 = type: functional, cell-based, Homo sapiens; conditions: Homo sapiens, SNU-449
# Description: SANGER: Inhibition of human SNU-449 cell growth in a cell viability assay.
# SW1990 = type: functional, cell-based, Homo sapiens; conditions: Homo sapiens, SW1990;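 also: cell growth inhibition determined with a viability assay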
# Description: SANGER: Inhibition of human SW1990 cell growth in a cell viability assay.
# T84 = type: functional, cell-based, Homo sapiens; conditions: Homo sapiens, T84;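 also: growth inhibition measured with a cell viability readout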
# Description: SANGER: Inhibition of human T84 cell growth in a cell viability assay.
# CWR22R = type: functional, cell-based, Homo sapiens; conditions: Homo sapiens, 22Rv1;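 also: growth inhibition of 22Rv1 cells, read out with a cell viability assay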
# Description: SANGER: Inhibition of human 22RV1 cell growth in a cell viability assay.
# 639-V = type: functional, cell-based, Homo sapiens; conditions: Homo sapiens, 639-V;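 also: growth inhibition of 639-V cells, read out with a cell viability assay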
# Description: SANGER: Inhibition of human 639-V cell growth in a cell viability assay.
# CAKI-1 = type: functional, cell-based, Homo sapiens; conditions: Homo sapiens, CAKI-1;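 also: growth inhibition of CAKI-1 cells, measured by a cell viability assay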
# Description: SANGER: Inhibition of human CAKI-1 cell growth in a cell viability assay.
# CAL-85-1 = type: functional, cell-based; conditions: Homo sapiens;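 also: growth inhibition of human CAL-85-1 cells, read out with a cell viability assay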
# Description: SANGER: Inhibition of human CAL-85-1 cell growth in a cell viability assay.
# TE-9 = type: functional, cell-based, Homo sapiens; conditions: Homo sapiens, TE-9;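 also: cell growth inhibition, measured with a cell viability readout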
# Description: SANGER: Inhibition of human TE-9 cell growth in a cell viability assay.
# TGBC1TKB = type: functional, cell-based, Homo sapiens; conditions: Homo sapiens, TGBC1TKB;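 also: growth inhibition of TGBC1TKB cells, read out by a cell viability assay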
# Description: SANGER: Inhibition of human TGBC1TKB cell growth in a cell viability assay.
# UACC-257 = type: functional, cell-based, Homo sapiens; conditions: Homo sapiens, UACC-257
# Description: SANGER: Inhibition of human UACC-257 cell growth in a cell viability assay.
# VA-ES-BJ = type: functional, cell-based, Homo sapiens; conditions: Homo sapiens, VA-ES-BJ;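 also: growth inhibition of the VA-ES-BJ cell line, read out by a cell viability assay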
# Description: SANGER: Inhibition of human VA-ES-BJ cell growth in a cell viability assay.
# CAPAN-1 = type: functional, cell-based, Homo sapiens; conditions: Homo sapiens, CAPAN-1;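 also: growth suppression of CAPAN-1 cells, read out by a cell viability assay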
# Description: SANGER: Inhibition of human CAPAN-1 cell growth in a cell viability assay.
# D-542MG = type: functional, cell-based, Homo sapiens; conditions: Homo sapiens, D-542MG
# Description: SANGER: Inhibition of human D-542MG cell growth in a cell viability assay.
# KMOE-2 = type: functional, cell-based; conditions: Homo sapiens;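 also: growth inhibition of human KMOE-2 cells, read out with a cell viability assay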
# Description: SANGER: Inhibition of human KMOE-2 cell growth in a cell viability assay.
# SK-LMS-1 = type: functional, cell-based, Homo sapiens; conditions: Homo sapiens, SK-LMS-1;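 also: growth inhibition of human SK-LMS-1 cells, read out with a cell viability assay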
# Description: SANGER: Inhibition of human SK-LMS-1 cell growth in a cell viability assay.
smiles,measurement,setting,value
COc1cc(F)c(F)c(Nc2ccc(I)cc2F)c1NS(=O)(=O)C1(CC(O)CO)CC1 (stereo not drawn),IC50,Ca9-22,0.981 µM
same,IC50,D-502MG,3.81 µM
same,IC50,GI-ME-N,1.58 µM
same,IC50,HCC1806,> 5 µM
same,IC50,HCC1954,> 5 µM
same,IC50,HT-1080,0.538 µM
same,IC50,JVM-3,4.38 µM
same,IC50,KALS-1,> 5 µM
same,IC50,KP-N-YN,> 5 µM
same,IC50,KS-1,1.26 µM
same,IC50,KU-19-19,0.366 µM
same,IC50,KYSE-270,> 5 µM
same,IC50,L-363,> 5 µM
same,IC50,MC-IXC,> 5 µM
same,IC50,MEL-HO,0.0394 µM
same,IC50,MHH-NB-11,1.06 µM
same,IC50,MIA PaCa-2,2.82 µM
same,IC50,MOLT-16,> 5 µM
same,IC50,MZ7-mel,0.375 µM
same,IC50,NCI-H1437,0.702 µM
same,IC50,NCI-H1623,1.78 µM
same,IC50,NCI-H1770,> 5 µM
same,IC50,NCI-H1793,> 5 µM
same,IC50,NCI-H292,0.64 µM
same,IC50,NCI-H358,> 5 µM
same,IC50,NCI-H69,> 5 µM
same,IC50,NCI-N87,> 5 µM
same,IC50,NY,> 5 µM
same,IC50,OE33,> 5 µM
same,IC50,PANC-03-27,0.768 µM
same,IC50,RVH-421,0.0335 µM
same,IC50,SBC-1,> 5 µM
same,IC50,SK-HEP1,2.05 µM
same,IC50,SK-MEL3,2.46 µM
same,IC50,SN12C,> 5 µM
same,IC50,SNU-449,3.85 µM
same,IC50,SW1990,> 5 µM
same,IC50,T84,> 5 µM
same,IC50,CWR22R,> 5 µM
same,IC50,639-V,> 5 µM
same,IC50,CAKI-1,> 5 µM
same,IC50,CAL-85-1,3.57 µM
same,IC50,TE-9,> 5 µM
same,IC50,TGBC1TKB,> 5 µM
same,IC50,UACC-257,0.0667 µM
same,IC50,VA-ES-BJ,> 5 µM
same,IC50,CAPAN-1,4.15 µM
C=C1C(=O)O[C@@H]2C3O[C@]3(C)CC/C=C(\C)CC[C@@H]12 (stereo partly drawn),IC50,D-502MG,> 5 µM
same,IC50,D-542MG,> 5 µM
same,IC50,GI-ME-N,> 5 µM
same,IC50,JVM-3,> 5 µM
same,IC50,KALS-1,> 5 µM
same,IC50,KMOE-2,> 5 µM
same,IC50,KP-N-YN,> 5 µM
same,IC50,KS-1,> 5 µM
same,IC50,L-363,> 5 µM
same,IC50,MHH-NB-11,> 5 µM
same,IC50,MOLT-16,> 5 µM
same,IC50,MZ7-mel,> 5 µM
same,IC50,NCI-H1770,> 5 µM
same,IC50,NCI-H69,> 5 µM
same,IC50,NCI-N87,> 5 µM
same,IC50,SBC-1,> 5 µM
same,IC50,SK-LMS-1,> 5 µM
same,IC50,TE-9,> 5 µM
same,IC50,TGBC1TKB,> 5 µM
same,IC50,UACC-257,> 5 µM
same,IC50,VA-ES-BJ,> 5 µM
